Data reported in patent US8772286B2, “MK2 inhibitors” (Merck Sharp & Dohme B.V., priority 2009, dated 2014).
Values after ≈ are worked out from the molar mass of the structure shown. Read-outs that look alike come from different tables or passages of the source. Each block holds one compound with its values, some of them ahead of it.

Columns and labels:
MK2 enzyme = biological target: T1, MK2 enzyme (Homo sapiens, UniProt P49137); test: MK2 enzyme activity, IMAP fluorescence polarization assay; type: biochemical
T1 construct: MK2 enzyme (active enzyme (peptide 46-end (Millipore))); purchased Millipore
Source text: In another assay the MK2 kinase activity can be determined by using an IMAP assay (Immobilized Metal Assay for Phosphochemicals—based coupled assay). IMAP is a homogeneous fluorescence polarization (FP) assay based on affinity capture of phosphorylated peptide substrates. IMAP uses fluorescein-labeled peptide substrates that, upon phosphorylation by a protein kinase, bind to so called IMAP nanoparticles, which are derivatized with trivalent metal complexes. […] In such an assay, MK2 phosphorylates a fluorescein-labeled peptide substrate (see example 14).
MK2 enzyme activity is measured using the IMAP (immobilized metal ion affinity-based fluorescence polarization) assay as outlined below.
The enzyme is diluted to 100 U/mL the day before use in KR buffer (10 mM Tris-HCl, 10 mM MgCl2, 0.01% Tween-20, 0.05% NaN3, 2 mM DTT, pH 7.2) and stored overnight at −20° C.
The dilutions in DMSO are then diluted 50-fold in KR-buffer of which 5 μl is used in the assay, leading to a final compound concentration range in the assay from 10 μM to 0.316 nM.
After 60 min incubation at room temperature in the dark the FP signal is read. Fluorescence at 535 nm is measured using parallel and perpendicular filters to determine differences in rotation due to binding of the phosphorylated substrate peptide to the beads. Values are calculated as percentage of the difference in readout (ΔmPi) of the controls with and without ATP. EC50 values are determined by curve fitting of the experimental results using Activity Base.

[1] = Solubility determination of MK2 inhibitors (kinetic aqueous solubility, UPLC); type: physicochemical; conditions: aqueous buffer (system solution from pION inc.), 22 °C, pH 7.4, aqueous buffer, kinetic from dmso stock
Protocol: The solubility can be determined using the Automated Kinetic Aqueous Solubility (AKASol) method, which is an HPLC-UV based method. The method is derived from the classical saturated shake-flask solubility method which has been adapted to the 96-well microtitre plate format, allowing the use of DMSO stock solutions. The solubility is determined by measuring the amount of compound in a saturated aqueous solution, quantified by an external calibration curve of the compound dissolved in DMSO. The solubility (mg/L) is measured at pH 7.4, at room temperature and the final concentration of DMSO in the sample solution is 1%.
The samples were prepared from 10 mM DMSO stock solutions. For each compound under investigation, a volume (9 μL) of the DMSO stock solution is transferred from the DMSO stock solution into 891 μL of buffer solution (system solution from pION inc.) in a 96 deep well plate, which equates to approximately 1% DMSO, using the Packard Multiprobe II robot liquid handling system. The pH of the buffer is manually adjusted at pH 7.4 by adding NaOH. This procedure is done in duplicate for each sample. After shaking for 24 h on a vortex mixer (Heidolph, Titramax 101) at 450 rpm and at room temperature (21-23° C.), 300 uL of the incubated sample is transferred from the deep well plate to a filter plate (PVDF, 0.45 um) on a vacuum manifold. To the filtrate (150 uL) 1-propanol (50 uL) is added to suppress precipitation and this solution is then analysed by UPLC. The solubility is determined using the calibration line previously prepared.
Preparation of the Standards and Built up of a Calibration Line
The calibration line is built with different concentrations of the test compound (standards), prepared from the same 10 mM DMSO stock solution. A volume (7 uL) from the same DMSO stock solution was diluted with DMSO (273 uL) leading to a solution with concentration of 0.25 mM. From this solution, three different injection volumes (0.2, 1, 1.8 uL) were injected on UPLC. The respective peak areas are plotted against amount of compound to build up the calibration line. The calibration line is used to determine the amount of dissolved compound in each sample, selecting the injection that gave peak areas closest to the peak area range of the calibration standards.

[2] = MK2 IMAP assay, 1 μM ATP, 30 min pre-incubation, 2 h room temperature, read-out: pEC50 value (converted)
[3] = pH 7.4, room temperature, about 1% DMSO, 24 h shaking, read-out: solubility
[4] = Table 1, compound of Formula (I) with spiro ring, MK2 IMAP assay, read-out: pEC50, Formula (I) (converted)
[5] = Table 1, compound of Formula (I) with spiro ring, pH 7.4, read-out: Solubility pH 7.4 (mg/L), Formula (I)
[6] = Table 1, compound of Formula (I) with spiro ring, MK2 IMAP assay
[7] = Table 1, comparison compound of Formula (XV) without spiro ring, pH 7.4, read-out: Solubility pH 7.4 (mg/L), Formula (XV)
[8] = Table 1, comparison compound of Formula (XV) without spiro ring, MK2 IMAP assay, read-out: pEC50, Formula (XV) (converted)

T1 sequence (P49137 46-400 limits assumed): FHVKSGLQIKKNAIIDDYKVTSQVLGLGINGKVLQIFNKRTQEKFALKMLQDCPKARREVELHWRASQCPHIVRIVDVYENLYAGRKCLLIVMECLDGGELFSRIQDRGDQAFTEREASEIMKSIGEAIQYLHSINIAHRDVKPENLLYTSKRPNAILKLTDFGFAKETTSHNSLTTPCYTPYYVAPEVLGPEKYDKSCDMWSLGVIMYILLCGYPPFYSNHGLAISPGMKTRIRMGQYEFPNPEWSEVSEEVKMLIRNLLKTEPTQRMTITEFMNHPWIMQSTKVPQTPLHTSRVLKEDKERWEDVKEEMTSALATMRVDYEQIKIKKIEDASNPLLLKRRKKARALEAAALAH

EC50 (MK2 enzyme; [2]): 3.16 to 31.6 nM | solubility at 24 h [1, 3]: ≥ 50 mg/L
SMILES: Cc1ccc(-c2nccc(-c3cc4c([nH]3)C3(CCNC3)CNC4=O)n2)cc1 (centres unmarked) [6—3, 2′-(2-p-tolylpyrimidin-4-yl)-5′,6′-dihydrospiro[pyrrolidine-3,7′-pyrrolo[3,2-c]pyridin]-4′(1′H)-one]

EC50 (MK2 enzyme; [2]): 3.16 to 31.6 nM | solubility at 24 h [1, 3]: 20 to 50 mg/L (≈ 55 to 138 µM)
SMILES: O=C1NCC2(CCNC2)c2[nH]c(-c3ccnc(-c4cccc(F)c4)n3)cc21 (centres unmarked) [6—4, 2′-(2-(3-fluorophenyl)pyrimidin-4-yl)-5′,6′-dihydrospiro[pyrrolidine-3,7′-pyrrolo[3,2-c]pyridin]-4′(1′H)-one]

EC50 (MK2 enzyme; [2]): 3.16 to 31.6 nM | solubility at 24 h [1, 3]: ≥ 50 mg/L
SMILES: O=C1NCC2(CCNC2)c2[nH]c(-c3ccnc(-c4cc5ccccc5o4)c3)cc21 (centres unmarked) [6—5, 2′-(2-(benzofuran-2-yl)pyridin-4-yl)-5′,6′-dihydrospiro[pyrrolidine-3,7′-pyrrolo[3,2-c]pyridin]-4′(1′H)-one]

EC50 (MK2 enzyme; [2]): 31.6 to 316 nM | solubility at 24 h [1, 3]: ≥ 50 mg/L
SMILES: O=C1NCC2(CNCCO2)c2[nH]c(-c3ccnc(-c4cc5ccccc5o4)n3)cc21 (centres unmarked) [7—1, 2′-(2-(benzofuran-2-yl)pyrimidin-4-yl)-5′,6′-dihydrospiro[morpholine-2,7′-pyrrolo[3,2-c]pyridin]-4′(1′H)-one]

EC50 (MK2 enzyme; [2]): ≤ 3.16 nM | solubility at 24 h [1, 3]: 20 to 50 mg/L (≈ 48.8 to 122 µM)
SMILES: O=C1NCC2(CCNCC2)c2[nH]c(-c3ccnc(-c4cnc5ccccc5c4)c3)cc21 [8—2, 2′-(2-(quinolin-3-yl)pyridin-4-yl)-5′,6′-dihydrospiro[piperidine-4,7′-pyrrolo[3,2-c]pyridin]-4′(1′H)-one]

EC50 (MK2 enzyme; [2]): ≤ 3.16 nM | solubility at 24 h [1, 3]: ≥ 50 mg/L
SMILES: O=C1NCC2(CCNCC2)c2[nH]c(-c3ccnc(-c4ccc5c(c4)OCO5)c3)cc21 [8—3, 2′-(2-(benzo[d][1,3]dioxol-5-yl)pyridin-4-yl)-5′,6′-dihydrospiro[piperidine-4,7′-pyrrolo[3,2-c]pyridin]-4′(1′H)-one]

EC50 (MK2 enzyme; [2]): 3.16 to 31.6 nM | solubility at 24 h [1, 3]: ≥ 50 mg/L
SMILES: O=C1NCC2(CCNCC2)c2[nH]c(-c3ccnc(-c4nc5ccccc5s4)n3)cc21 [9—2, 2′-(2-(benzo[d]thiazol-2-yl)pyrimidin-4-yl)-5′,6′-dihydrospiro[piperidine-4,7′-pyrrolo[3,2-c]pyridin]-4′(1′H)-one]

EC50 (MK2 enzyme; [2]): 31.6 to 316 nM | solubility at 24 h [1, 3]: ≥ 50 mg/L
SMILES: O=C1NCC2(CCNCC2)c2[nH]c(-c3ccnc(-c4nccs4)n3)cc21 [9—3, 2′-(2-(thiazol-2-yl)pyrimidin-4-yl)-5′,6′-dihydrospiro[piperidine-4,7′-pyrrolo[3,2-c]pyridin]-4′(1′H)-one]

EC50 (MK2 enzyme; [2]): 31.6 to 316 nM | solubility at 24 h [1, 3]: ≥ 50 mg/L
SMILES: NCC(=O)N1CCC2(CC1)CNC(=O)c1cc(-c3ccnc(-c4cc5ccccc5o4)n3)[nH]c12 [10—1, 1-(2-aminoacetyl)-2′-(2-(benzofuran-2-yl)pyrimidin-4-yl)-5′,6′-dihydrospiro[piperidine-4,7′-pyrrolo[3,2-c]pyridin]-4′(1′H)-one]

EC50 (MK2 enzyme; [2]): ≤ 3.16 nM | solubility at 24 h [1, 3]: ≥ 50 mg/L
SMILES: O=C1NCC2(CCNCC2)c2[nH]c(-c3ccnc(-c4cnc(NC5CCCC5)nc4)n3)cc21 [11—1, 2′-(2′-(cyclopentylamino)-2,5′-bipyrimidin-4-yl)-5′,6′-dihydrospiro[piperidine-4,7′-pyrrolo[3,2-c]pyridin]-4′(1′H)-one]

EC50 (MK2 enzyme; [2]): ≤ 3.16 nM | solubility at 24 h [1, 3]: ≥ 50 mg/L
SMILES: Cc1ccc(C(=O)Nc2cc(-c3cc4c([nH]3)C3(CCNCC3)CNC4=O)ccn2)cc1C [12—2, 3,4-dimethyl-N-(4-(4′-oxo-1′,4′,5′,6′-tetrahydrospiro[piperidine-4,7′-pyrrolo[3,2-c]pyridine]-2′-yl)pyridin-2-yl)benzamide]

EC50 (MK2 enzyme; [2]): 31.6 to 316 nM | solubility at 24 h [1, 3]: 20 to 50 mg/L (≈ 41.1 to 103 µM)
SMILES: O=C(Nc1nccc(-c2cc3c([nH]2)C2(CCCNC2)CNC3=O)n1)c1cccc(OC(F)(F)F)c1 (centres unmarked) [13—2, N-(4-(4′-oxo-1′,4′,5′,6′-tetrahydrospiro[piperidine-3,7′-pyrrolo[3,2-c]pyridine]-2′-yl)pyrimidin-2-yl)-3-(trifluoromethoxy)benzamide]

EC50 (MK2 enzyme; [4]): 1.26 nM | solubility at 24 h [1, 5]: 35 mg/L
SMILES: O=C1NCC2(CCNCC2)c2[nH]c(-c3ccnc(-c4cnc5ccccc5c4)c3)cc21 [16_1 Formula (I)]

pEC50, Formula (I) (MK2 enzyme; [6]): 8.2 | solubility at 24 h [1, 5]: 23 mg/L
SMILES: O=C1NCC2(CCNCC2)c2[nH]c(-c3ccnc(-c4cnc5ccccc5c4)n3)cc21 [16_2 Formula (I)]

EC50 (MK2 enzyme; [4]): 7.94 nM | solubility at 24 h [1, 5]: 36 mg/L
SMILES: O=C1NCC2(CCNCC2)c2[nH]c(-c3ccnc(-c4cccc(F)c4)n3)cc21 [16_3 Formula (I)]

EC50 (MK2 enzyme): 501 nM | solubility at 24 h [1, 7]: 32 mg/L
SMILES: O=C1NCCc2[nH]c(-c3ccnc(-c4cccc(F)c4)n3)cc21 [16_3 Formula (XV)]

EC50 (MK2 enzyme; [4]): 31.6 nM | solubility at 24 h [1, 5]: 36 mg/L
SMILES: O=C1NCC2(CCNCC2)c2[nH]c(-c3ccnc(-c4ccccc4F)n3)cc21 [16_4 Formula (I)]

EC50 (MK2 enzyme; [8]): 1000 nM | solubility at 24 h [1, 7]: 44 mg/L
SMILES: O=C1NCCc2[nH]c(-c3ccnc(-c4ccccc4F)n3)cc21 [16_4 Formula (XV)]

pEC50, Formula (I) (MK2 enzyme; [6]): 8.4 | solubility at 24 h [1, 5]: 37 mg/L
SMILES: O=C1NCC2(CCNCC2)c2[nH]c(-c3ccnc(-c4ccc5c(c4)OCO5)n3)cc21 [16_5 Formula (I)]

EC50 (MK2 enzyme; [8]): 126 nM | solubility at 24 h [1, 7]: 5 mg/L
SMILES: O=C1NCCc2[nH]c(-c3ccnc(-c4ccc5c(c4)OCO5)n3)cc21 [16_5 Formula (XV)]

EC50 (MK2 enzyme; [4]): 6.31 nM | solubility at 24 h [1, 5]: 84 mg/L
SMILES: O=C1NCC2(CCNCC2)c2[nH]c(-c3ccnc(-c4cc5ccccc5o4)n3)cc21 [16_6 Formula (I)]

EC50 (MK2 enzyme; [8]): 50.1 nM | solubility at 24 h [1, 7]: 2 mg/L
SMILES: O=C1NCCc2[nH]c(-c3ccnc(-c4cc5ccccc5o4)n3)cc21 [16_6 Formula (XV)]

EC50 (MK2 enzyme; [4]): 3.16 nM | solubility at 24 h [1, 5]: 66 mg/L
SMILES: O=C1NCC2(CCNCC2)c2[nH]c(-c3ccnc(-c4cc5ccccc5o4)c3)cc21 [16_7 Formula (I)]

EC50 (MK2 enzyme): 126 nM | solubility at 24 h [1, 7]: 2 mg/L
SMILES: O=C1NCCc2[nH]c(-c3ccnc(-c4cc5ccccc5o4)c3)cc21 [16_7 Formula (XV)]

EC50 (MK2 enzyme; [4]): 6.31 nM | solubility at 24 h [1, 5]: 35 mg/L
SMILES: CC(=O)c1ccc(-c2nccc(-c3cc4c([nH]3)C3(CCNCC3)CNC4=O)n2)cc1 [16_8 Formula (I)]

EC50 (MK2 enzyme; [8]): 126 nM | solubility at 24 h [1, 7]: 3 mg/L
SMILES: CC(=O)c1ccc(-c2nccc(-c3cc4c([nH]3)CCNC4=O)n2)cc1 [16_8 Formula (XV)]

pEC50, Formula (I) (MK2 enzyme; Table 2, compound of Formula (I) with amine-containing spiro ring, MK2 IMAP assay): 8.4 | solubility at 24 h ([1]; Table 2, compound of Formula (I) with amine-containing spiro ring, pH 7.4, read-out: Solubility pH 7.4 (mg/L), Formula (I)): 37 mg/L
SMILES: O=C1NCC2(CCNCC2)c2[nH]c(-c3ccnc(-c4ccc5c(c4)OCO5)n3)cc21 [17_1 Formula (I)]

EC50 (MK2 enzyme; Table 2, comparison compound of Formula (XVI), spiro ring without amine, MK2 IMAP assay, read-out: pEC50, Formula (XVI) (converted)): 794 nM | solubility at 24 h ([1]; Table 2, comparison compound of Formula (XVI), spiro ring without amine, pH 7.4, read-out: Solubility pH 7.4 (mg/L), Formula (XVI)): 2 mg/L
SMILES: O=C1NCC2(CCOCC2)c2[nH]c(-c3ccnc(-c4ccc5c(c4)OCO5)n3)cc21 [17_1 Formula (XVI)]
